Laboratory results: PMC11217349, “Development of Nurr1 agonists from amodiaquine by scaffold hopping and fragment growing” (Communications Chemistry, 2024)
“And” between values parts separate entries of the source, which are not always exact repeats. Equal values may be shown once.

How the values were obtained:
FXR = target: T1, FXR (Homo sapiens, UniProt Q96RI1); assay: Gal4-hybrid selectivity assay FXR; type: cell-based; conditions: 3 µM; reference agonist = 100%
T1 construct: chimeric receptors composed of the Gal4-DBD and the hinge region and LBD; expressed in transfected cells; host or cells: HEK293T
T1 sequence (Q96RI1 262-486 limits assumed): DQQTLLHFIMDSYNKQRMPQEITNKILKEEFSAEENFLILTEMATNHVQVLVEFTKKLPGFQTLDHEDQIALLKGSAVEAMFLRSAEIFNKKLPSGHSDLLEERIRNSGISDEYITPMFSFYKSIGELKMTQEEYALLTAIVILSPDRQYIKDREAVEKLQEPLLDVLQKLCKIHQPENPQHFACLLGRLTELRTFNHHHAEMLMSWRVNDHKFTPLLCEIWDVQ
Method: (§1) Nurr1 modulation was determined in a Gal4 hybrid reporter gene assay in HEK293T cells (German Collection of Microorganisms and Cell Culture GmbH, DSMZ) using pFR-Luc (Stratagene, La Jolla, CA, USA; reporter), pRL-SV40 (Promega, Madison, WI, USA; internal control) and pFA-CMV-hNurr1-LBD[14], coding for the hinge region and ligand binding domain of the canonical isoform of human Nurr1. […] After 24 h, the medium was changed to Opti-MEM without supplements, and cells were transiently transfected using Lipofectamine LTX reagent (Invitrogen, Carlsbad, CA, USA) according to the manufacturer’s protocol. Five hours after transfection, cells were incubated with the test compounds in Opti-MEM supplemented with penicillin (100 U/mL), streptomycin (100 μg/mL), and 0.1% DMSO for 16 h before luciferase activity was measured using the Dual-Glo Luciferase Assay System (Promega) according to the manufacturer’s protocol on a Tecan Spark luminometer (Tecan Deutschland GmbH, Crailsheim, Germany). Firefly luminescence was divided by Renilla luminescence and multiplied by 1000 resulting in relative light units (RLU) to normalize for transfection efficiency and cell growth. Fold activation was obtained by dividing the mean RLU of the test compound by the mean RLU of the untreated control. All samples were tested in at least three biologically independent experiments in duplicates. […]

[1] = system: HBEC-5i human brain endothelial cells; assay: In vitro blood-brain-barrier model; type: in vitro ADME; conditions: HBEC-5i trans-well, 10 µM, 60 min
Method: Permeation of test compounds through a human brain endothelial cell barrier was evaluated using the Corning Costar 3470 Transwell Plate system (0.4 μm pore diameter with 6.5 mm inserts) and HBEC-5i cells (ATCC, CRL-3245). Filter inserts were coated one day before seeding with 50 μL 0.01% rat-tail collagen type I ([…], Sigma-Aldrich) in PBS. 60,000 HBEC-5i cells in 100 μL HBEC-5i-Medium (DMEM/F12 with 10% FCS and 40 μg/mL ECGS) were seeded after aspiration of the coating-supernatant in each insert with 600 μL HBEC-5i-Medium in each receiver well. After 24 h incubation at 37 °C with 5% CO2, the medium was exchanged to 600 μL T98G cell supernatant in receiver wells and 100 μL fresh HBEC-5i-Medium in inserts. The medium exchange was repeated every second day. On day 7 after seeding, the medium in the receiver wells was replaced by 600 μL Hank's balanced salt solution (HBSS) containing 10 mM HEPES and 0.1% DMSO and 100 μL test compound mixtures (antipyrine and test compound; each at 10 μM) in HBSS containing 10 mM HEPES and 0.1% DMSO were added to inserts. After 60 min incubation, 100 μL samples were taken from the receiver wells and diluted in 400 μL (75%/25% A/B; A=Formic acid 0.1% in water; B = Acetonitrile). Test compound concentrations in the samples were determined by LC-MS/MS on an API-3200-QTrap (Sciex) equipped with an Agilent Technologies 1100 series setup including a binary pump […]), and a Shimadzu […] autosampler under the control of Analyst 1.6 (Sciex). […] B) for 6 min going to (50%:50%) after 8 min. 5 μL of aspirated supernatant diluted in mobile phase starting conditions was loaded onto the column, separated at a flow rate of 400 μL/min, and quantified per Area of MRM (multiple reaction monitoring).

VDR = target: T2, VDR (Homo sapiens, UniProt P11473); assay: Gal4-hybrid selectivity assay VDR; type: cell-based; conditions: 3 µM; reference agonist = 100%
T2 construct: chimeric receptors composed of the Gal4-DBD and the hinge region and LBD; expressed in transfected cells; host or cells: HEK293T
T2 sequence (P11473 127-423 limits assumed): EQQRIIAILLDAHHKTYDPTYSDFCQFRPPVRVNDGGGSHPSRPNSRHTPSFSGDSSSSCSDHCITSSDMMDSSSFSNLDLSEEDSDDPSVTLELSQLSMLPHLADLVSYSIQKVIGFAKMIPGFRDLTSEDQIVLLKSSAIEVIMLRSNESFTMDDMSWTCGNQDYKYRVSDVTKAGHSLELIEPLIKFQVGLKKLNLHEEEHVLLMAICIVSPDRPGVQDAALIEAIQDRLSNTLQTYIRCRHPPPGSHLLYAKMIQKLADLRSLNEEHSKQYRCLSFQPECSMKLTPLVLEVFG

RARα = target: T3, RARα (Homo sapiens, UniProt P10276); assay: Gal4-hybrid selectivity assay RARα; type: cell-based; conditions: 3 µM; reference agonist = 100%
T3 construct: chimeric receptors composed of the Gal4-DBD and the hinge region and LBD; expressed in transfected cells; host or cells: HEK293T
T3 sequence (P10276 183-417 limits assumed): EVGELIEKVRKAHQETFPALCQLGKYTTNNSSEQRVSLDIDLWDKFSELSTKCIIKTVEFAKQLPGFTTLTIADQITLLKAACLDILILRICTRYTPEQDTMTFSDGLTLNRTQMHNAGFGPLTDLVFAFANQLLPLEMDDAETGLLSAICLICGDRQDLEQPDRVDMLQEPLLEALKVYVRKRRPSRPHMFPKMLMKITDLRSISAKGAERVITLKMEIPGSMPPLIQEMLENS
Method: as §1

[2] = Parallel artificial membrane permeability assay (PAMPA); type: in vitro ADME; conditions: 500 µM donor, pH 7.4, 18 h
Method: Passive lipid membrane diffusion of test compounds was determined using Merck Millipore MultiScreen Filter Plates (0.45 μm pore diameter, hydrophobic PVDF). The filter inserts were coated with 1% L-α-phosphatidylcholine (Fluka Analytical) in n-dodecan. The test compounds were then added to the donor compartment at a final concentration of 500 µM in a phosphate buffer pH 7.4 containing 5% DMSO with a total volume of 150 µL. The acceptor compartment was filled with 300 µL PBS containing 5% DMSO. Additionally, three equilibrium samples were prepared by directly adding the donor solution to the acceptor compartment for the calculation of log Pe values. The filter plates were incubated for 18 h before the test compound concentrations in the acceptor compartments and in the equilibrium, samples were determined by UV absorbance at 320 nm (34), 360 nm (36), 310 nm (41), or 315 nm (42) with external calibration in a 96 well quartz plate on a SpectraMax M2e microplate reader (Molecular Devices). logPe values were calculated according to the formula published by Sugano and colleagues.

LXRα = target: T4, LXRα (Homo sapiens, UniProt Q13133); assay: Gal4-hybrid selectivity assay LXRα; type: cell-based; conditions: 3 µM; reference agonist = 100%
T4 construct: chimeric receptors composed of the Gal4-DBD and the hinge region and LBD; expressed in transfected cells; host or cells: HEK293T
T4 sequence (Q13133 209-447 limits assumed): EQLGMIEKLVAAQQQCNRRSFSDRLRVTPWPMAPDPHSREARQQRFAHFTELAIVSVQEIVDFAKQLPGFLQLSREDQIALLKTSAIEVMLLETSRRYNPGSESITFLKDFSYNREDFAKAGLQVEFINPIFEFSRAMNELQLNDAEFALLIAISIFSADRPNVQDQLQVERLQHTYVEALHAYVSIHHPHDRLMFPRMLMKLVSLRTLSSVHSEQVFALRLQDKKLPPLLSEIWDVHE
Method: as §1

PPARα = target: T5, PPARα (Homo sapiens, UniProt Q07869); assay: Gal4-hybrid selectivity assay PPARα; type: cell-based; conditions: 3 µM; reference agonist = 100%
T5 construct: chimeric receptors composed of the Gal4-DBD and the hinge region and LBD; expressed in transfected cells; host or cells: HEK293T
T5 sequence (Q07869 239-466 limits assumed): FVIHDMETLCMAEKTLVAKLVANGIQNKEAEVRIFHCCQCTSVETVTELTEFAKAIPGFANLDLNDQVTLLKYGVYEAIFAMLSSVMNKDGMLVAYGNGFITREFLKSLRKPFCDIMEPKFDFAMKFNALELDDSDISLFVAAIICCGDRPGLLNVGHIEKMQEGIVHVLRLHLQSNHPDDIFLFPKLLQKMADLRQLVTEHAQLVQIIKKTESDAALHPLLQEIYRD
Method: as §1

PPARδ = target: T6, PPARδ (Homo sapiens, UniProt Q03181); assay: Gal4-hybrid selectivity assay PPARδ; type: cell-based; conditions: 3 µM; reference agonist = 100%
T6 construct: chimeric receptors composed of the Gal4-DBD and the hinge region and LBD; expressed in transfected cells; host or cells: HEK293T
T6 sequence (Q03181 211-439 limits assumed): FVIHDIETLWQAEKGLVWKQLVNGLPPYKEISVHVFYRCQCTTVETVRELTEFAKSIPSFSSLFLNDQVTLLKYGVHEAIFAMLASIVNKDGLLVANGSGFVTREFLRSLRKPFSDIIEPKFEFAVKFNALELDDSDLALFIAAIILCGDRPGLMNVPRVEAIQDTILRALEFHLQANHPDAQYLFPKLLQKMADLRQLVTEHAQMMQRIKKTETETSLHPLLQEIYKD
Method: as §1

Cc1nc2c(Cl)cccn2c1NC(=O)c1ccc(-c2ccc(N(C)C)cc2)o1 [Compound 36, N-(8-Chloro-2-methylimidazo[1,2-a]pyridin-3-yl)-5-(4-(dimethylamino)phenyl)furan-2-carboxamide]
% rel. act. FXR (FXR): 0.311% and 0.333% and 0.363%
logPe (BBB) [1]: -4.64 and -4.729 and -4.725 and -4.687 and -4.681 and -4.749
% rel. act. VDR (VDR): 4.840% and 6.730% and 2.930%
% rel. act. RARα (RARα): 0.175% and 0.388% and 0.324%
logPe (PAMPA) [2]: -5.647 and -5.642 and -5.6601 and -5.6738
% rel. act. LXRα (LXRα): 2.022% and 2.102% and 1.670%
% rel. act. PPARα (PPARα): 1.669% and 2.630% and 1.870%
% rel. act. PPARδ (PPARδ): 4.502% and 5.181% and 2.926%
